Test [1] concerns the target T1, Aldehyde dehydrogenase, mitochondrial (Homo sapiens, UniProt P05091).
T1 sequence (P05091 whole entry): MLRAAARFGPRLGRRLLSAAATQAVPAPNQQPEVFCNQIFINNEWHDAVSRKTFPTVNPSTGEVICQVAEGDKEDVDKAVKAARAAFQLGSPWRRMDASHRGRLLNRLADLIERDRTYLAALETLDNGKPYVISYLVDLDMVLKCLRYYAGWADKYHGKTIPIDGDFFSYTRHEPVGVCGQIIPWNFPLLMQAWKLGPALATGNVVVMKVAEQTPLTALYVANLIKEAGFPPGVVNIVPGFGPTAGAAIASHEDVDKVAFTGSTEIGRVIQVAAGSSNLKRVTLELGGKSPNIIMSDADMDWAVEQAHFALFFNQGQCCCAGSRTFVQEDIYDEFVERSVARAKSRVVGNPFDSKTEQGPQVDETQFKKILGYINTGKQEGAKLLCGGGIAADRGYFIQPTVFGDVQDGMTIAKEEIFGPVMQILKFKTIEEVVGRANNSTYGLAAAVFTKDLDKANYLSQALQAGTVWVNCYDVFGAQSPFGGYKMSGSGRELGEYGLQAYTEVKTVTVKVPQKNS
In words: ALDH2 Assay. How it is done:
Standard ALDH2 reaction mixtures contained 150 uM formaldehyde, 2.5 mM NAD+, 10 mM MgCl2 and 10 nM recombinant human ALDH2 in 50 mM Hepes buffer, pH 7.4, 0.01% Tween 20 in a final volume of 50 ul using 384-well plates. After 60 min of pre-incubation of compound with ALDH2 and formaldehyde, the reaction was started by adding NAD+ and the reaction mixture was allowed to proceed for 90 minutes. Activity of the enzyme was determined by monitoring NADH formation using Perkin-Elmer Envision Reader with excitation and emission wavelengths set at 340 and 460 nm, respectively.

In test [2] the target is T2, Amine oxidase [flavin-containing] A (Homo sapiens, UniProt P21397).
T2 sequence (P21397 whole entry): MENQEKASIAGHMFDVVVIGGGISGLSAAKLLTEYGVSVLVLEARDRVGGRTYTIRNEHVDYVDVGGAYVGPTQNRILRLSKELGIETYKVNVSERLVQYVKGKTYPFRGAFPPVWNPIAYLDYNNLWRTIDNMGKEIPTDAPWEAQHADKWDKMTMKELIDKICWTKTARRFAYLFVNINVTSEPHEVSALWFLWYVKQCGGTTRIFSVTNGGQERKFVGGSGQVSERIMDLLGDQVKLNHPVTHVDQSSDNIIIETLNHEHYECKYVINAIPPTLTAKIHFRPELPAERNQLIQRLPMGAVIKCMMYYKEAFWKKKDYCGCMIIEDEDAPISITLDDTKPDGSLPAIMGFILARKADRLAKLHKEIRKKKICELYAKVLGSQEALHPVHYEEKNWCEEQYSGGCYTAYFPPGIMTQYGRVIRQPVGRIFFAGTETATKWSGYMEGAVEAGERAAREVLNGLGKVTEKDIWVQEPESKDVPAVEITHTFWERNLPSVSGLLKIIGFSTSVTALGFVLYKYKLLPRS
In words: MAO-A and MAO-B Assay. How it is done:
(§1) MAO assays included luminogenic MAO substrate, reaction buffers, Luciferin Detection and the reconstitution buffer with esterase. Standard MAO reaction mixtures included microsome contained MAO-A (2 ug) or MAO-B (10 ug), 160 uM substrate for MAO-A or 16 uM substrate for MAO-B, MAO-A buffer (100 mM Hepes buffer, pH 7.5, 5% glycerol) or MAO-B buffer (100 mM Hepes, pH 7.5, 5% glycerol, 10% dimethyl sulfoxide) in a final volume of 30 ul. After 20 minutes of pre-incubation of the enzyme with compounds, the reaction was initiated by adding enzyme substrate and the reaction was allowed to proceed for 60 minutes. Reconstituted Luciferin Detection Reagent (30 ul) was then added is added to simultaneously stop the MAO reaction and convert the methyl ester derivative to luciferin and produce light. The amount of light produced is directly proportional to the activity of MAO. The mixtures were further incubated for 20 minutes and activity of the enzyme was determined using Perkin-Elmer Envision Reader.

For test [3], the target named is T3, Amine oxidase [flavin-containing] B (Homo sapiens, UniProt P27338).
T3 sequence (P27338 whole entry): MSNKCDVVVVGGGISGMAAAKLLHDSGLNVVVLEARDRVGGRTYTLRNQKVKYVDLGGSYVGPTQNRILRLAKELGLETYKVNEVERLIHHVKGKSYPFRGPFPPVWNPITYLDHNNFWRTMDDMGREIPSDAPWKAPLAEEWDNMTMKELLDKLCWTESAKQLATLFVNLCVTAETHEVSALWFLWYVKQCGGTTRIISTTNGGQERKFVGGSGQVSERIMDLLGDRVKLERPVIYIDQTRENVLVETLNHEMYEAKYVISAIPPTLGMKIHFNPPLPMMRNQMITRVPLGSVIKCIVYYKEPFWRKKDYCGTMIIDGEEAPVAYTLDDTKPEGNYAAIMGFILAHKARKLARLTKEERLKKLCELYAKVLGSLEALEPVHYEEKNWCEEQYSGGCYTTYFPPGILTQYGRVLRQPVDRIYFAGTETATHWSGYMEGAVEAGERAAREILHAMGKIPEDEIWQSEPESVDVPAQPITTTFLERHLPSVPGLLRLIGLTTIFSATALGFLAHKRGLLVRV
In words: MAO-A and MAO-B Assay. The method, then: as §1

pIC50: −log10 of the molar value.

On to `Cc1cccc(C)c1C(=O)NCc1ccc(C2CCNC(=O)C2)cc1` (stereo not drawn) [US9610299, Example 6], for which the pIC50 (as a rule, −log10 of the IC50, conventionally taken in molar units) in test [1] is 5.95; in test [2], less than 3.89; in test [3], less than 3.89.

The record behind these values is BindingDB's records for patent US9610299 (Gilead Sciences, 2017).
